Tested on: T1, isolated tracheal spirals of the guinea pig (Cavia porcellus)
T1 construct: the whole of the trachea is roughly freed beginning from the larynx up to the tracheal bifurcation, removed and transferred; from tissue; host or cells: isolated trachea (spiral strips) of male Pirbright white guinea pigs
Assay: anticholinergic effectiveness on isolated tracheal spirals (antagonism against acetyl-β-methylcholine chloride)
Conditions: ratio of maximum agonist effect in presence (EAmB) and absence (EAm) of antagonist
From the text: A model for this is the measurement of the anticholinergic effectiveness on isolated tracheal spirals of the guinea pig.
The test substance used was 3α-benziloyloxynortropane-8-spiro-1'-pyrrolidinium chloride (trospium chloride; MP 194), ipratropium bromide being used as comparison substance.
There is to be determined the anticholinergic effectiveness of MP 194 in comparison with the reference substance ipratropium bromide on the isolated tracheal spirals of the guinea pig.
3.1.1. animal species: guinea pig
3.1.2. animal strain: Pirbright white
3.3.1. test substance (test antagonist) trospium chloride (MP 194) (M.W. 428)
3.3.2. reference substance (reference antagonist) ipratropium bromide (Atrovent) (M.W. 412.4)
3.3.3.1. acetyl-β-methylcholine chloride (Sigma) (M.W. 195.7)
The guinea pig is stunned by a blow on the neck. Subsequently, the whole of the trachea is roughly freed beginning from the larynx up to the tracheal bifurcation, removed and transferred to tempered (37° C.) and carbogenized tyrode solution. After surrounding connective tissue has been removed as far as possible, the preparation is cut up spirally by means of fine scissors at an angle of about 45° and separated into two equal sized sections. After weighing, both preparations are provided proximally and distally with a silk thread. One thread serves for fixing the preparation by means of a loop to the bottom of the bath and the other is connected via a hook with the transducer above the bath vessel.
Subsequently, the preparations, corresponding to the calibration, are prestressed with about 80 mN and equilibrated from 50-100 minutes. During the equilibration phase, the nutrient solution in the bath vessels is renewed in 15 minute intervals. As soon as the resting muscle tonus of the preparation has stabilized, there takes place the cumulative addition of the agonist, whereby the addition of the next highest concentration first takes place when no further increase of contraction is recognisable (plateau). When the maximum contraction height of the preparation is achieved, the cumulative agonist addition is ended and the preparation is rinsed. After a further equilibration phase (v. supra), the cumulative addition of the agonist is repeated but this time in the presence of the test or reference antagonist.
3.6.1. The perfusion part consists of an L-shaped organ bath in the hollow space of which (longer limb) runs a double glass spiral through which the nutrient solution is passed into the actual bath vessel (28 ml. content; shorter limb). This bath vessel is divided into two chambers which are, however, connected together by two transverse connections. […] The inlet chambers as well as the feeding glass spirals are tempered from the outside to 37° C. by a separate liquid circulation. This tempering takes place with the help of a "Colora" ultra-thermostat type K (Colora Messtechnik GmbH, Dusseldorf, Germany) which serves as thermostat and pump. In order, in case of need, always to have available ready-for-use nutrient solution, above the organ bath is provided a double-walled storage container in which the nutrient solution is also tempered and carbogenised. This is connected via a glass stopcock and a polypropylene tube with double glass spiral in the interior of the organ bath.
3.6.2. The measurement and recording part includes a transducer (Statham-Universal-Zelle UC-2; Hugo Sachs Elektronic KG, Hugstetten, Germany). By means of a hanging-in weight, a force of 40 mN is produced on the transducer which passes as electrical signal via a connecting cable to a bridge amplifier. The amplification is smoothly so regulated that the force provided corresponds to a constant value on the scale or an analogous value on the millimeter paper of the recorder (dependent upon the amplification; see below). After fixing the organ, the preparation is prestressed to the doubled mark, corresponding to 80 mN. […]

T1 sequence (H0W1Z3 1-590): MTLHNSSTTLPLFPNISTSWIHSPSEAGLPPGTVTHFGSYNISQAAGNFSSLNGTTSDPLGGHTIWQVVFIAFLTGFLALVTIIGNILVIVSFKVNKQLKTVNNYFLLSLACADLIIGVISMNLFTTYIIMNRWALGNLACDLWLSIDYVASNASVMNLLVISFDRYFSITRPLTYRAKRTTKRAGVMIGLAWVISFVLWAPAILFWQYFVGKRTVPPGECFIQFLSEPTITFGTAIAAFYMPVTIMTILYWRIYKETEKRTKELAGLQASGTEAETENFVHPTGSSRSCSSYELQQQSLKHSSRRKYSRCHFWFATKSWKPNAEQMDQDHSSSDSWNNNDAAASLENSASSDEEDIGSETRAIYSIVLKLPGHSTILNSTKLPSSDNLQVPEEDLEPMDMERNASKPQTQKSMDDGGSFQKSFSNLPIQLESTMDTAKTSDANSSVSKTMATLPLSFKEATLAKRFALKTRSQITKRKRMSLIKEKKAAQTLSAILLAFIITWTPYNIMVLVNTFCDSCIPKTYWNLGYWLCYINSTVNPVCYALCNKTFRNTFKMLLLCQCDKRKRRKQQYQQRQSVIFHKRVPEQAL

O=C(O[C@H]1C[C@H]2CC[C@@H](C1)[N+]21CCCC1)C(O)(c1ccccc1)c1ccccc1 [trospium chloride, 3α-benziloyloxynortropane-8-spiro-1'-pyrrolidinium chloride]
EAmB/EAm ± s: 1.09 ± 0.22

Source: patent US4780476A, “Azoniaspironortropanol esters as asthma therapeutics and broncholytics” (Madaus GmbH & Co., priority 1985, dated 1988)
